Test results taken from patent US10633419B2, “Immunomodulators” (BRISTOL-MYERS SQUIBB COMPANY, priority 2014, dated 2020).
Starred links: 1 amine or outer side, 2 acyl side, 3 side chain; linkers in the order of their positions; H or OH if unused. Positions of bridges follow the written chain, without caps; N, C: chain ends. Non-standard residues stand in square brackets, D forms with d. Residues, ends and D or L forms follow the SMILES beside them. *: point of attachment. X6 = O=C(O)CCCCCCCCCCCCCCCCC(=O)N[C@@H](CCC(=O)NCCCOCCOCCOCCCN*)C(=O)O; X4 = O=C(O)CCCCCCCCCCCCCCCCC(=O)N[C@@H](CC(=O)NCCCOCCOCCOCCCN*)C(=O)O; Trp(1-CH2COOH) = N[C@@H](Cc1cn(CC(=O)O)c2ccccc12)C(=O)O; X9 = O=C(O)CCCCCCCCCCCCCCCCC(=O)N[C@@H](CCN*)C(=O)O; d(cisHyp) = O=C(O)[C@H]1C[C@@H](O)CN1; βAsp = O=C(O)[C@H](CC(=O)[*:2])N[*:1]; PEG6 = NCCOCCOCCOCCOCCOCCOCCC(=O)O; Hyp = O=C(O)[C@@H]1C[C@@H](O)CN1; dHyp = O=C(O)[C@H]1C[C@H](O)CN1; Undecanoyl = CCCCCCCCCCC(=O)*; NMeNle = CCCC[C@H](NC)C(=O)O; Pip = O=C(O)[C@@H]1CCCCN1; NMeA = CN[C@@H](C)C(=O)O; Pra = C#CC[C@H](N)C(=O)O; Dab = NCC[C@H](N)C(=O)O; Dap = NC[C@H](N)C(=O)O; PEG2 = NCCOCCOCCC(=O)O

Biological target: T1, PD-L1 (Homo sapiens, UniProt Q9NZQ7)
T1 construct: hPDL1(19-239)-TVMV-His; made in house; host or cells: HEK293T
T1 sequence (Q9NZQ7 with tags, fused parts or gaps): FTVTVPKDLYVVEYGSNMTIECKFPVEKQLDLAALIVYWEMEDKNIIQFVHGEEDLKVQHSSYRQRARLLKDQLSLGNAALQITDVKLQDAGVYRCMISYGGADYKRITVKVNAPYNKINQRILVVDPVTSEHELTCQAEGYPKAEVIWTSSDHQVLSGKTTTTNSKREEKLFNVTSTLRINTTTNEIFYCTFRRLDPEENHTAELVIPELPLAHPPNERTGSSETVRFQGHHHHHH
Assay: PD-1/PD-L1 Homogenous Time-Resolved Fluorescence (HTRF) binding assay (PD-1-Ig/PD-L1-His)
Conditions: inhibition of PD-1-Ig binding to PD-L1-TVMV-His; value given as number; read-out: HTRF IC50
Outline: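 HTRF competition in dPBS with 0.1% BSA and 0.05% Tween-20: 20 nM PD-1-Ig added after 15 min compound pre-incubation with 10 nM PD-L1-His, then another 15 min. Signal (665/620 nm) after 30 min with APC anti-His (20 nM) and Eu anti-Ig (1 nM).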

Question: CCCCCCCCCCC(=O)NCCCC[C@H](NC(=O)CCOCCOCCOCCOCCOCCOCCNC(=O)[C@@H]1CSCC(=O)N[C@@H](Cc2ccc(O)cc2)C(=O)N(C)[C@@H](C)C(=O)N[C@@H](CC(N)=O)C(=O)N2CCC[C@H]2C(=O)N[C@@H](CN)C(=O)N[C@@H](CCC(N)=O)C(=O)N2C[C@H](O)C[C@@H]2C(=O)N[C@@H](Cc2c[nH]c3ccccc23)C(=O)N[C@@H](CO)C(=O)N[C@@H](Cc2cn(CC(=O)O)c3ccccc23)C(=O)N(C)[C@@H](CCCC)C(=O)N(C)[C@@H](CCCC)C(=O)N[C@@H](CC(C)C)C(=O)N1)C(=O)O [Example 11062] ({CH2CO}-Y[NMeA]NP[Dap]Q[d(cisHyp)]WS[Trp(1-CH2COOH)][NMeNle][NMeNle]LC[PEG6]K(Undecanoyl)-OH; thioether N-14) was tested. Which IC50 did it give?
Answer: 456 nM

Same assay, conditions: inhibition of PD-1-Ig binding to PD-L1-TVMV-His; value given as range class; read-out: HTRF IC50

Question: For CCCC[C@H]1C(=O)N(C)[C@@H](CCCC)C(=O)N[C@@H](CCC(=O)O)C(=O)N[C@H](C(=O)NCC(=O)N[C@@H](Cc2cn(CC[C@H](NC(=O)CCCCCCCCCCCCCCCCC(=O)O)C(=O)O)nn2)C(=O)O)CSCC(=O)N[C@@H](Cc2ccc(O)cc2)C(=O)N(C)[C@@H](C)C(=O)N[C@@H](CC(=O)O)C(=O)N2CCC[C@H]2C(=O)N[C@@H](CN)C(=O)N[C@@H](CC(C)C)C(=O)N2C[C@H](O)C[C@H]2C(=O)N[C@@H](Cc2c[nH]c3ccccc23)C(=O)N[C@@H](CCN)C(=O)N[C@@H](Cc2cn(CC(=O)O)c3ccccc23)C(=O)N1C [Example 13126], which IC50 is on record?
Answer: 10 to 99 nM

Question: CCCC[C@H]1C(=O)N(C)[C@@H](CCCC)C(=O)N[C@@H](CC(C)C)C(=O)N[C@H](C(=O)NCC(=O)N[C@@H](CC(=O)NCCCOCCOCCOCCCNC(=O)CC[C@H](NC(=O)CCCCCCCCCCCCCCCCC(=O)O)C(=O)O)C(=O)O)CSCC(=O)N[C@@H](Cc2ccc(O)cc2)C(=O)N2CCCC[C@H]2C(=O)N[C@@H](CC(N)=O)C(=O)N2CCC[C@H]2C(=O)N[C@@H](CN)C(=O)N[C@@H](CC(C)C)C(=O)N2C[C@H](O)C[C@H]2C(=O)N[C@@H](Cc2c[nH]c3ccccc23)C(=O)N[C@@H](CCN)C(=O)N[C@@H](Cc2cn(CC(=O)O)c3ccccc23)C(=O)N1C [Example 11262] ({CH2CO}-Y[Pip]NP[Dap]L[Hyp]W[Dab][Trp(1-CH2COOH)][NMeNle][NMeNle]LCGD(X6)-OH; thioether N-14) was tested. Which IC50 did it give?
Answer: 10 to 99 nM

Question: For C#CC[C@H](NC(=O)CNC(=O)[C@@H]1CSCC(=O)N[C@@H](Cc2ccc(O)cc2)C(=O)N(C)[C@@H](C)C(=O)N[C@@H](CC(=O)O)C(=O)N2CCC[C@H]2C(=O)N[C@@H](Cc2c[nH]cn2)C(=O)N[C@@H](CCCCN)C(=O)N2C[C@H](O)C[C@H]2C(=O)N[C@@H](Cc2c[nH]c3ccccc23)C(=O)N[C@@H](CCCCN)C(=O)N[C@@H](Cc2cn(CC(=O)O)c3ccccc23)C(=O)N(C)[C@@H](CCCC)C(=O)N(C)[C@@H](CCCC)C(=O)N[C@@H](CCC(=O)O)C(=O)N1)C(=O)N[C@@H](CC(=O)O)C(N)=O [INT 1400E] ({CH2CO}-Y[NMeA]DPHK[Hyp]WK[Trp(1-CH2COOH)][NMeNle][NMeNle]ECG[Pra]D-NH2; thioether N-14), which IC50 is on record?
Answer: 0.3 to 9.9 nM

Question: CCCC[C@H]1C(=O)N(C)[C@@H](CCCC)C(=O)N[C@@H](CC(C)C)C(=O)N[C@H](C(=O)NCC(=O)N[C@@H](CCC(=O)NCCCOCCOCCOCCCNC(=O)C[C@H](NC(=O)CCCCCCCCCCCCCCCCC(=O)O)C(=O)O)C(=O)O)CSCC(=O)N[C@@H](Cc2ccc(O)cc2)C(=O)N(C)[C@@H](C)C(=O)N[C@@H](CC(N)=O)C(=O)N2CCC[C@@H]2C(=O)N[C@@H](CN)C(=O)N[C@@H](CC(C)C)C(=O)N2C[C@@H](O)C[C@@H]2C(=O)N[C@@H](Cc2c[nH]c3ccccc23)C(=O)N[C@@H](CCN)C(=O)N[C@@H](Cc2cn(CC(=O)O)c3ccccc23)C(=O)N1C [Example 11234] ({CH2CO}-Y[NMeA]N[dP][Dap]L[dHyp]W[Dab][Trp(1-CH2COOH)][NMeNle][NMeNle]LCGE(X4)-OH; thioether N-14) was tested. Which IC50 did it give?
Answer: 0.3 to 9.9 nM

Question: With CCCC[C@H]1C(=O)N(C)[C@@H](CCCC)C(=O)N[C@@H](CC(C)C)C(=O)N[C@H](C(=O)NCC(=O)N[C@@H](CC(=O)NCCOCCOCCC(=O)NCC[C@H](NC(=O)CCCCCCCCCCCCCCCCC(=O)O)C(=O)O)C(=O)O)CSCC(=O)N[C@@H](Cc2ccc(O)cc2)C(=O)N2CCCC[C@H]2C(=O)N[C@@H](CC(N)=O)C(=O)N2CCC[C@H]2C(=O)N[C@@H](CN)C(=O)N[C@@H](CC(C)C)C(=O)N2C[C@H](O)C[C@H]2C(=O)N[C@@H](Cc2c[nH]c3ccccc23)C(=O)N[C@@H](CCN)C(=O)N[C@@H](Cc2cn(CC(=O)O)c3ccccc23)C(=O)N1C [Example 13163] ({CH2CO}-Y[Pip]NP[Dap]L[Hyp]W[Dab][Trp(1-CH2COOH)][NMeNle][NMeNle]LCG[βAsp][PEG2]-X9; thioether N-14) as the compound, how does the IC50 read?
Answer: 0.3 to 9.9 nM
